These results are taken from patent US20260217674A1 (priority 2023, published 2026).

Each structure is given as a SMILES string. Where two headings read alike, the source gives them in different places.

Test [1] concerns the target acetylcholinesterase (AChE) (Homo sapiens, UniProt P22303). Description: biochemical. The test is classed as biochemical. The settings on record: for inhibition at 0.001 µM: read-out: % Inhibition (1 nM); for inhibition at 0.01 µM: read-out: % Inhibition (10 nM); for inhibition at 0.1 µM: read-out: % Inhibition (100 nM). The protocol:
A solution of each tested compound is prepared by dissolving the compound in DMSO at 1 mM stock solution and diluting with water to the following concentration 100 nM, 10 nM and 1 nM.
The procedure of MAK119 kit assay of Sigma Aldrich (colorimetric test) has been followed as described:
The Working Reagent (MAK119C) of the kit is prepared fresh and used within 30 minutes.
A solution B made with […] of water and […] of Calibrator (MAK119B of the kit) is distributed into separate wells of the 96-well plate. […] of the solution of the tested compound is added into wells and then […] of the solution A is added to all sample wells.
The plate was incubated at room temperature for 2 min and the initial absorbance at 412 nm (A412)ini was measured. After 10 min of incubation at room temperature the final measurement (A412)final.
The following calculation is then achieved: […] Inhibition was calculated by comparing the absorbance of the samples containing the tested compounds at 412 nm (A412) and of the absorbance of the negative and positive controls after 12 min of incubation.

Test [2] concerns VGLUT3^T8I/T8I mice. Kind of test: Activity-based anorexia (ABA) model in hypocholinergic VGLUT3^T8I/T8I mice. The settings on record: for percentage of mice weighing at least 75% of their baseline body weight: after 8 days. The test is classed as in vivo. An excerpt: Self-starvation behaviors are modeled in the activity-based anorexia (ABA) test (Klenotich, S. J., Dulawa, 2012 Methods Mol Biol 829, 377-93). In this test, animals are housed in the presence of a running wheel. Access to food is progressively restricted over a period of 8 days. For these animal experiments, an hypocholinergic mouse model was used. The type 3 atypical vesicular transporter (VGLUT3) is expressed by all cholinergic striatal interneurons (El Mestikawy et al. 2011, Nat Rev Neurosci 12(4), 204-16).
In 2015, the El Mestikawy team discovered a p.T8I variant of VGLUT3 expressed in patients suffering from substance use disorder and from eating disorders (Sakae et al. Mol Psychiatry, 2015, 20(11), 1448-59). Mice expressing this variant (VGLUT3^T8I/T8I mice) have a reduced cholinergic tone in the striatum and are more vulnerable to self-starvation in the ABA model. In other terms, VGLUT3^T8I/T8I mice present the same main symptomology than anorexic patients and are considered to be a model of choice for anorexia.
The ABA model was performed as described by Klenotich and Dulawa (Klenotich, S. J., Dulawa, 2012 Methods Mol Biol 829, 377-93) and as previously reported (Favier, M., et al., J Clin Invest 130, 6616-6630 (2020)). For habituation, all mice were individually housed in cages with running wheels for 7 days with unrestricted access to food, water and running wheel. After the adaptation period, all mice were maintained in the same running wheel cages for 8 additional days. Access to food was progressively restricted, from 8 h (day 1) to 2 h (day 8) per day. Body weight and food intake were measured daily before and after food access, respectively. […]. Mice were treated daily 30 min before the start of food access, during both baseline and food restriction phases.

Setting [3] is: compound 1 nM, absorbance 412 nm, 12 min incubation.
Where [4] appears, read: compound 10 nM, absorbance 412 nm, 12 min incubation.
Where [5] appears, read: compound 100 nM, absorbance 412 nm, 12 min incubation.

Sequence of acetylcholinesterase (AChE) (P22303 32-614): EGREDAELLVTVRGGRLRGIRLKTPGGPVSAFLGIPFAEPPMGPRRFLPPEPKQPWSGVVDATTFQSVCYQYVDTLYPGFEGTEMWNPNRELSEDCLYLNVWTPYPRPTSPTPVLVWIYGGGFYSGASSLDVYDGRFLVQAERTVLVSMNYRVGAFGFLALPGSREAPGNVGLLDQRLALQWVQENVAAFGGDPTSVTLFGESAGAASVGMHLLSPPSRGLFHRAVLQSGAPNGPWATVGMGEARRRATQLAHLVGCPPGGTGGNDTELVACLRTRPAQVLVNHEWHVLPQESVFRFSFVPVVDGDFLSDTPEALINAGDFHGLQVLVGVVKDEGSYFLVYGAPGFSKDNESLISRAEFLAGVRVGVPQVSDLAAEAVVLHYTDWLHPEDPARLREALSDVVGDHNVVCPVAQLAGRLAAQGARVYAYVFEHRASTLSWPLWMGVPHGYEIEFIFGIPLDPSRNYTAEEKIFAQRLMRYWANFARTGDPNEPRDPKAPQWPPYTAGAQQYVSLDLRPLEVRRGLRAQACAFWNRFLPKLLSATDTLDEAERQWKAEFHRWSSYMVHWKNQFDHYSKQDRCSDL

The term inhibition denotes the share of the control response that was lost under treatment. `COc1ccc2c(c1)C=C/C(=C/Oc1cc3c(cc1OC)C(=O)C(CC1CCN(Cc4ccccc4)CC1)C3)N2C(C)C` (centres unmarked) [Compound 56]: the inhibition at 0.001 µM in test [1] (setting [3]) stood at 50%. Also, the inhibition at 0.01 µM in test [1] (setting [4]) is 75%. The inhibition at 0.1 µM in test [1] (setting [5]) was 100%. The “percentage of mice weighing at least 75% of their baseline body weight” value in test [2] (0.01 mg/kg daily i.p.) is “about 90%”; in test [2] (0.03 mg/kg daily i.p., FIG. 1(B)), 60%. The “efficiency in reducing the food restriction (food intake)” value in test [2] (donquine 0.01 mg/kg versus donepezil 0.03 mg/kg daily i.p., FIG. 1(C)) is on record as “more efficient than donepezil at 0.03 mg/kg”.
Regarding `COc1cc2c(cc1OC[n+]1cccc3ccc(O)cc31)CC(CC1CCN(Cc3ccccc3)CC1)C2=O` (centres unmarked) [Compound 57], in test [1], the inhibition at 0.01 µM stood at 100% and the inhibition at 0.1 µM was determined as 100%.
Turning to `COc1cc2c(cc1OC[n+]1cccc3cccc(N)c31)CC(CC1CCN(Cc3ccccc3)CC1)C2=O` (centres unmarked) [Compound 59], the inhibition at 0.01 µM in test [1] (setting [4]) amounted to 100%. For the same compound, the inhibition at 0.1 µM in test [1] (setting [5]) was 100%.
For `COc1cc2c(cc1OCc1ccc3cccc(N)c3[n+]1C)CC(CC1CCN(Cc3ccccc3)CC1)C2=O` (centres unmarked) [Compound 62], the inhibition at 0.01 µM in test [1] (setting [4]) turned out to be 100%. For the same compound, the inhibition at 0.1 µM in test [1] (setting [5]) was 100%.
For the compound `COc1cc2c(cc1OCc1ccc3c(Cl)cc[n+](C)c3c1)CC(CC1CCN(Cc3ccccc3)CC1)C2=O` (centres unmarked) [Compound 63], in test [1], the inhibition at 0.001 µM came out at 75%, the inhibition at 0.01 µM amounted to 75% and the inhibition at 0.1 µM worked out at 75%.
For the compound `COc1cc2c(cc1OCc1ccc3ccc[n+](C)c3c1)CC(CC1CCN(Cc3ccccc3)CC1)C2=O` (centres unmarked) [Compound 64], in test [1] (setting [3]), the inhibition at 0.001 µM was 25%. In addition, the inhibition at 0.01 µM in test [1] (setting [4]) is 100%. Further, the inhibition at 0.1 µM in test [1] (setting [5]) is 100%.
Take `COc1cc2c(cc1OCc1cc[n+](C(C)C)c3ccccc13)CC(CC1CCN(Cc3ccccc3)CC1)C2=O` (centres unmarked) [Compound 75]: in test [1] (setting [4]), the “% Inhibition (10 nM)” value stood at 100%. Also, the “% Inhibition (100 nM)” value in test [1] (setting [5]) was 100%.
On to `COc1cc2c(cc1OCc1ccc3ccccc3[n+]1C(C)C)CC(CC1CCN(Cc3ccccc3)CC1)C2=O` (centres unmarked) [Compound 76], for which the inhibition at 0.01 µM in test [1] (setting [4]) was found to be 100%. The inhibition at 0.1 µM in test [1] (setting [5]) turned out to be 100%.
For the compound `COc1cc2c(cc1OC)C(=O)C(CC1CCN(Cc3ccccc3)CC1)C2` (centres unmarked) [Donepezil, donepezil, reference compound], the “efficiency in reducing the number of mice losing weight until 75% of baseline bodyweight or less” value in test [2] (donepezil 0.03 mg/kg versus donquine 0.01 mg/kg daily i.p., FIG. 1(D)) is on record as “less efficient”.
